The nature of data set [1]: Stability of the compound in PBS at pH 7 measured for 48 hrs by 1H-NMR analysis. Type of data set: physicochemical. Conditions: buffer, pH 7, 48 h.
The target of data set [2] is Glutamate carboxypeptidase 2 (Homo sapiens, UniProt Q04609). Nature of the data set: Inhibition of GCPII (unknown origin) expressed in DU-145 cells after 1 hr by [67Ga]Ga-DOTA-PSMA competitive binding assay with gamma counting.
The nature of data set [3]: Stability of the compound in presence of GCPII/PSMA expressing human DU-145 cells by 1H-NMR analysis. Type of data set: ADME, cell-based.

Glutamate carboxypeptidase 2, sequence (Q04609 whole entry): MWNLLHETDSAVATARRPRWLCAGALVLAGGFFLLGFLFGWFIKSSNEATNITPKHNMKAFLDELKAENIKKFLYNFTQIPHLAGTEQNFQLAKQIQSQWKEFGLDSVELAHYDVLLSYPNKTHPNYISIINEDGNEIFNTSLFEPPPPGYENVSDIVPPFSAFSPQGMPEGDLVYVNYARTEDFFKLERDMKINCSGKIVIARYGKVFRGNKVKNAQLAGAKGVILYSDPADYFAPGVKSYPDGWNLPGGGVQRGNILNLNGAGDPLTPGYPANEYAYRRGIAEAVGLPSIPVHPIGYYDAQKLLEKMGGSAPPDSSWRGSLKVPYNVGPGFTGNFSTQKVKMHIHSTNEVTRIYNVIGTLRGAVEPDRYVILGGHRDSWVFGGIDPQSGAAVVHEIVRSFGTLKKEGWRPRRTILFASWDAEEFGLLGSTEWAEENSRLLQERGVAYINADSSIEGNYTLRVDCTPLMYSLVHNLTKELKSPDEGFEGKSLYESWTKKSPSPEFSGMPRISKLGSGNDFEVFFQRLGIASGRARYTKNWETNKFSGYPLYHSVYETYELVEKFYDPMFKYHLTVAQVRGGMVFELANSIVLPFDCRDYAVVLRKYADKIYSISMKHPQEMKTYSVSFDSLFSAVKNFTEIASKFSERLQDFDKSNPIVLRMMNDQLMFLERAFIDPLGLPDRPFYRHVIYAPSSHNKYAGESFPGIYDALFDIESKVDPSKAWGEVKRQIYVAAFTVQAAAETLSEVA

Regarding `O=C(O)CC[C@H](NC(=O)N[C@@H](CCC(=O)O)C(=O)O)C(=O)O`, the Stabilty entry in data set [1] and in data set [3] was “Stable” throughout. In data set [2], this compound displayed an IC50 of 1.34 µM.

`O=C(O)CC[C@H](NC(=S)N[C@@H](CCC(=O)O)C(=O)O)C(=O)O`: the Stabilty result in data set [1] and in data set [3] was “Stable” throughout. For the same compound, the concentration for half-maximal inhibition (IC50) in data set [2] came out at 135 µM.

One may read the IC50 as the concentration needed to halve the response being measured. Read a low IC50 as inhibition by little substance.

(Values after ChEMBL document CHEMBL4811257, “Dipeptide inhibitors of the prostate specific membrane antigen (PSMA): A comparison of urea and thiourea derivatives” (Bioorg Med Chem Lett, 2021).)
